What was measured:
[1] = 101 kPa, Liquid
[2] = xn = mol fraction of the nth substance listed; conditions: 101 kPa, Liquid

CN1CCCC1=O [N-methylpyrrolidone]
[1]
Conditions	mass density [kg/m3]	viscosity [mPa·s]
303.15 K	1023.47	1.554
313.15 K	1014.55	1.332
323.15 K	1005.66	1.16
333.15 K	996.71	1.022
343.15 K	987.75	0.908
353.15 K	978.76	0.8127

CN1CCCC1=O [N-methylpyrrolidone] + C1CCCCC1
[2]
Conditions	mass density, 303.15 K [kg/m3]	mass density, 313.15 K [kg/m3]	mass density, 323.15 K [kg/m3]	mass density, 333.15 K [kg/m3]	viscosity, 303.15 K [mPa·s]	viscosity, 313.15 K [mPa·s]	viscosity, 323.15 K [mPa·s]	viscosity, 333.15 K [mPa·s]
x2 = 0	1023.47	1014.55	1005.66	996.71	1.554	1.332	1.16	1.022
x2 = 0.1157	989.9	980.96	972.02	963.06	1.394	1.206	1.056	0.931
x2 = 0.2275	958.38	949.41	940.41	931.37	1.28	1.106	0.965	0.854
x2 = 0.3355	928.85	919.78	910.71	901.57	1.194	1.032	0.9	0.791
x2 = 0.4398	901.35	892.21	883.02	873.78	1.132	0.973	0.843	0.739
x2 = 0.5409	875.71	866.43	857.14	847.77	1.073	0.92	0.791	0.692
x2 = 0.6386	851.53	842.17	832.77	823.29	1.011	0.866	0.746	0.648
x2 = 0.7332	828.73	819.29	809.79	800.2	0.953	0.813	0.699	0.608
x2 = 0.8249	807.41	797.92	788.36	778.69	0.895	0.76	0.655	0.573
x2 = 0.9138	787.37	777.85	768.22	758.49	0.843	0.72	0.623	0.544

CN1CCCC1=O [N-methylpyrrolidone] + Cc1ccccc1
[2]
Conditions	mass density [kg/m3]	viscosity [mPa·s]
303.15 K, x2 = 0	1023.47	1.554
303.15 K, x2 = 0.1071	1006.98	1.399
303.15 K, x2 = 0.2121	990.67	1.258
303.15 K, x2 = 0.3156	974.42	1.138
303.15 K, x2 = 0.4177	958.02	1.021
303.15 K, x2 = 0.5185	941.54	0.923
303.15 K, x2 = 0.6174	925	0.822
303.15 K, x2 = 0.7151	907.95	0.727
303.15 K, x2 = 0.8114	890.99	0.65
303.15 K, x2 = 0.9064	874.21	0.566
313.15 K, x2 = 0	1014.55	1.332
313.15 K, x2 = 0.1071	998.03	1.21
313.15 K, x2 = 0.2121	981.67	1.088
313.15 K, x2 = 0.3156	965.37	0.991
313.15 K, x2 = 0.4177	948.91	0.89
313.15 K, x2 = 0.5185	932.4	0.803
313.15 K, x2 = 0.6174	915.81	0.719
313.15 K, x2 = 0.7151	898.7	0.642
313.15 K, x2 = 0.8114	881.69	0.575
313.15 K, x2 = 0.9064	864.87	0.516
323.15 K, x2 = 0	1005.66	1.16
323.15 K, x2 = 0.1071	989.08	1.061
323.15 K, x2 = 0.2121	972.67	0.956
323.15 K, x2 = 0.3156	956.3	0.87
323.15 K, x2 = 0.4177	939.78	0.783
323.15 K, x2 = 0.5185	923.24	0.71
323.15 K, x2 = 0.6174	906.6	0.639
323.15 K, x2 = 0.7151	889.42	0.572
323.15 K, x2 = 0.8114	872.36	0.514
323.15 K, x2 = 0.9064	855.48	0.463
333.15 K, x2 = 0	996.71	1.022
333.15 K, x2 = 0.1071	980.08	0.932
333.15 K, x2 = 0.2121	963.63	0.844
333.15 K, x2 = 0.3156	947.17	0.766
333.15 K, x2 = 0.4177	930.61	0.695
333.15 K, x2 = 0.5185	914.01	0.632
333.15 K, x2 = 0.6174	897.3	0.57
333.15 K, x2 = 0.7151	880.06	0.514
333.15 K, x2 = 0.8114	862.94	0.463
333.15 K, x2 = 0.9064	845.99	0.418
343.15 K, x2 = 0	987.75	0.908
343.15 K, x2 = 0.1071	971.08	0.844
343.15 K, x2 = 0.2121	954.56	0.751
343.15 K, x2 = 0.3156	938.03	0.683
343.15 K, x2 = 0.4177	921.4	0.622
343.15 K, x2 = 0.5185	904.74	0.566
343.15 K, x2 = 0.6174	887.95	0.518
343.15 K, x2 = 0.7151	870.65	0.464
343.15 K, x2 = 0.8114	853.44	0.418
343.15 K, x2 = 0.9064	836.42	0.379
353.15 K, x2 = 0	978.76	0.8127
353.15 K, x2 = 0.1071	962	0.7651
353.15 K, x2 = 0.2121	945.42	0.6769
353.15 K, x2 = 0.3156	928.81	0.617
353.15 K, x2 = 0.4177	912.13	0.5616
353.15 K, x2 = 0.5185	895.4	0.513
353.15 K, x2 = 0.6174	878.51	0.464
353.15 K, x2 = 0.7151	861.11	0.422
353.15 K, x2 = 0.8114	843.83	0.381
353.15 K, x2 = 0.9064	826.71	0.347
